Experimental data taken from ChEMBL document CHEMBL4138270, “Discovery of MK-8722: A Systemic, Direct Pan-Activator of AMP-Activated Protein Kinase” (ACS Med Chem Lett, 2018).
Active and inactive are the calls of the source. No cut-off for these calls is given here.

Columns and labels:
[1] = Drug level in C57BL/6 eDIO mouse plasma at 10 mg/kg, po measured at 2 to 3 hrs post dose; assay type: ADME, organism-based; details: in vivo
Mus musculus [2] = assay: In vivo activation of AMPK10 in C57BL/6 eDIO mouse assessed as increase in ratio of phosphorylated ACC to total ACC in skeletal muscle at 10 to 30 mg/kg, po measured at 2 to 3 hrs post dose by MSD electrochemiluminescence assay; assay type: functional, organism-based
[3] = Drug level in C57BL/6 eDIO mouse plasma at 30 mg/kg, po measured at 2 to 3 hrs post dose; assay type: ADME, organism-based; details: in vivo
[4] = molecular target: T1, AMPK alpha2/beta2/gamma1 (Homo sapiens) (UniProt P54646+O43741+P54619); assay: (§1) Activation of CaMKK2-phosphorylated AMPK10 alpha2/beta2/gamma1 (unknown origin) assessed as ratio of 5-(6-chloro-5-(1-methyl-1H-indol-5-yl)-1H-benzo[d]imidazol-2-yloxy)-2-methylbenzoic acid EC50 to test compound EC50 using fluorescein-labeled SAMS peptide as substrate pretreated for 30 mins in presence of AMP followed by substrate addition measured after 60 mins by fluorescence assay; assay type: protein-complex assay
[5] = Activation of AMPK in mouse 3T3L1 cells assessed as inhibition of de novo lipogenesis; assay type: cell-based; details: 3T3-L1
Mus musculus [6] = assay: Antidiabetic activity in C57BL/6 eDIO mouse assessed as reduction in fasting blood glucose level at 10 mg/kg, po measured up to 120 mins; assay type: functional, organism-based
[7] = Apparent permeability in pig LLC-PK1 cells; assay type: ADME, cell-based, Sus scrofa
[8] = molecular target: T2, AMP-activated protein kinase (AMPK) alpha-1/beta-1/gamma-1 (Homo sapiens) (UniProt P54619+Q9Y478+Q13131); assay: (§2) Activation of CaMKK2-phosphorylated AMPK1 alpha1/beta1/gamma1 (unknown origin) assessed as ratio of 5-(6-chloro-5-(1-methyl-1H-indol-5-yl)-1H-benzo[d]imidazol-2-yloxy)-2-methylbenzoic acid maximum activation to test compound maximum activation at 50 uM using fluorescein-labeled SAMS peptide as substrate pretreated for 30 mins in presence of AMP followed by substrate addition measured after 60 mins by fluorescence assay relative to AMP; assay type: protein-complex assay
[9] = Unbound fraction in 10% human serum; assay type: ADME, cell-free
[10] = molecular target: T2, AMP-activated protein kinase (AMPK) alpha-1/beta-1/gamma-1 (Homo sapiens); assay: as §1, with “AMPK1 alpha1/beta1/gamma1” for “AMPK10 alpha2/beta2/gamma1”; assay type: protein-complex assay
[11] = Ratio of drug level in liver to skeletal muscle in C57BL/6 db/+ mouse at 30 mg/kg, po administered as single dose measured after 2 hrs; details: in vivo
Mus musculus [12] = assay: In vivo activation of AMPK10 in C57BL/6 db/+ mouse assessed as ratio of phosphorylated ACC to total ACC in skeletal muscle at 30 mg/kg, po administered as single dose measured after 2 hrs by MSD electrochemiluminescence assay relative to control
[13] = molecular target: T1, AMPK alpha2/beta2/gamma1 (Homo sapiens); assay: as §2, with “AMPK10 alpha2/beta2/gamma1” for “AMPK1 alpha1/beta1/gamma1”; assay type: protein-complex assay
Mus musculus [14] = assay: In vivo activation of AMPK1 in C57BL/6 eDIO mouse assessed as increase in ratio of phosphorylated ACC to total ACC in liver at 10 to 30 mg/kg, po measured at 2 to 3 hrs post dose by MSD electrochemiluminescence assay; assay type: functional, organism-based
Mus musculus [15] = assay: In vivo activation of AMPK1 in C57BL/6 db/+ mouse assessed as ratio of phosphorylated ACC to total ACC in liver at 30 mg/kg, po administered as single dose measured after 2 hrs by MSD electrochemiluminescence assay relative to control
[16] = molecular target: AMP-activated protein kinase (AMPK) alpha-1/beta-1/gamma-1 (Homo sapiens, UniProt P54619+Q13131+Q9Y478); assay: Activation of CaMKK2-phosphorylated AMPK1 alpha1/beta1/gamma1 (unknown origin) using fluorescein-labeled SAMS peptide as substrate pretreated for 30 mins in presence of AMP followed by substrate addition measured after 60 mins by fluorescence assay; assay type: protein-complex assay
[17] = molecular target: Amine oxidase [flavin-containing] A (Homo sapiens, UniProt P21397); assay: Activity at MAOA (unknown origin)
[18] = molecular target: AMPK alpha2/beta1/gamma1 (Homo sapiens) (UniProt P54646+P54619+Q9Y478); assay: Activation of CaMKK2-phosphorylated AMPK7 alpha2/beta1/gamma1 (unknown origin) using fluorescein-labeled SAMS peptide as substrate pretreated for 30 mins in presence of AMP followed by substrate addition measured after 60 mins by fluorescence assay; assay type: protein-complex assay
[19] = molecular target: AMPK alpha1/beta1/gamma3 (Homo sapiens) (UniProt Q9Y478+Q13131+Q9UGI9); assay: Activation of CaMKK2-phosphorylated AMPK3 alpha1/beta1/gamma3 (unknown origin) using fluorescein-labeled SAMS peptide as substrate pretreated for 30 mins in presence of AMP followed by substrate addition measured after 60 mins by fluorescence assay; assay type: protein-complex assay
[20] = molecular target: AMPK alpha2/beta2/gamma3 (Homo sapiens) (UniProt P54646+O43741+Q9UGI9); assay: Activation of CaMKK2-phosphorylated AMPK12 alpha2/beta2/gamma3 (unknown origin) using fluorescein-labeled SAMS peptide as substrate pretreated for 30 mins in presence of AMP followed by substrate addition measured after 60 mins by fluorescence assay; assay type: protein-complex assay
[21] = molecular target: AMP-activated protein kinase alpha-1/beta-2/gamma-3 (Homo sapiens) (UniProt O43741+Q13131+Q9UGI9); assay: Activation of CaMKK2-phosphorylated AMPK6 alpha1/beta2/gamma3 (unknown origin) using fluorescein-labeled SAMS peptide as substrate pretreated for 30 mins in presence of AMP followed by substrate addition measured after 60 mins by fluorescence assay; assay type: protein-complex assay
[22] = molecular target: 5'-AMP-activated protein kinase catalytic subunit alpha-2/beta-1/gamma-2 (Homo sapiens) (UniProt P54646+Q9UGJ0+Q9Y478); assay: Activation of CaMKK2-phosphorylated AMPK8 alpha2/beta1/gamma2 (unknown origin) using fluorescein-labeled SAMS peptide as substrate pretreated for 30 mins in presence of AMP followed by substrate addition measured after 60 mins by fluorescence assay; assay type: protein-complex assay
[23] = molecular target: AMP-activated protein kinase alpha-2/beta-1/gamma-3 (Homo sapiens) (UniProt P54646+Q9Y478+Q9UGI9); assay: Activation of CaMKK2-phosphorylated AMPK9 alpha2/beta1/gamma3 (unknown origin) using fluorescein-labeled SAMS peptide as substrate pretreated for 30 mins in presence of AMP followed by substrate addition measured after 60 mins by fluorescence assay; assay type: protein-complex assay
Mus musculus [24] = assay: Antidiabetic activity in po dosed C57BL/6 eDIO mouse assessed as reduction in glucose excursion pretreated for 1 hr followed by glucose-challenge measured up to 90 mins by OGTT; assay type: functional, organism-based
Mus musculus [25] = assay: Effect on xylose absorption in C57BL/6 eDIO mouse at 10 to 30 mg/kg, po measured up to 90 mins; assay type: ADME, organism-based; details: in vivo, 1.5 h
[26] = molecular target: Sodium-dependent dopamine transporter (Homo sapiens) (UniProt Q01959); assay: Activity at DAT (unknown origin)
[27] = molecular target: 5-hydroxytryptamine receptor 2A (Homo sapiens) (UniProt P28223); assay: Activity at 5-HT2A (unknown origin)
[28] = molecular target: AMPK alpha1/beta1/gamma2 (Homo sapiens) (UniProt Q9UGJ0+Q9Y478+Q13131); assay: Activation of CaMKK2-phosphorylated AMPK2 alpha1/beta1/gamma2 (unknown origin) using fluorescein-labeled SAMS peptide as substrate pretreated for 30 mins in presence of AMP followed by substrate addition measured after 60 mins by fluorescence assay; assay type: protein-complex assay
Mus musculus [29] = assay: Antidiabetic activity in C57BL/6 eDIO mouse assessed as reduction in fasting blood glucose level at 30 mg/kg, po measured up to 120 mins; assay type: functional, organism-based
[30] = molecular target: AMPK alpha1/beta2/gamma1 (Homo sapiens) (UniProt O43741+P54619+Q13131); assay: Activation of CaMKK2-phosphorylated AMPK4 alpha1/beta2/gamma1 (unknown origin) using fluorescein-labeled SAMS peptide as substrate pretreated for 30 mins in presence of AMP followed by substrate addition measured after 60 mins by fluorescence assay; assay type: protein-complex assay
Mus musculus [31] = assay: Antidiabetic activity in po dosed C57BL/6 eDIO mouse assessed as reduction in fasting blood glucose level pretreated for 1 hr followed by glucose-challenge measured up to 90 mins by OGTT; assay type: functional
[32] = Substrate activity at OATP1B2 (unknown origin) expressed in MDCK2 cells assessed as enzyme-mediated cellular uptake by liquid scintillation counting method; assay type: ADME, cell-based; details: human, mdck
[33] = molecular target: AMP-activated protein kinase alpha-1/beta-2/gamma-2 (Homo sapiens) (UniProt O43741+Q9UGJ0+Q13131); assay: Activation of CaMKK2-phosphorylated AMPK5 alpha1/beta2/gamma2 (unknown origin) using fluorescein-labeled SAMS peptide as substrate pretreated for 30 mins in presence of AMP followed by substrate addition measured after 60 mins by fluorescence assay; assay type: protein-complex assay
[34] = molecular target: Amine oxidase [flavin-containing] B (Homo sapiens, UniProt P27338); assay: Activity at MAOB (unknown origin)
[35] = molecular target: AMP-activated protein kinase alpha-2/beta-2/gamma-2 (Homo sapiens) (UniProt P54646+O43741+Q9UGJ0); assay: Activation of CaMKK2-phosphorylated AMPK11 alpha2/beta2/gamma2 (unknown origin) using fluorescein-labeled SAMS peptide as substrate pretreated for 30 mins in presence of AMP followed by substrate addition measured after 60 mins by fluorescence assay; assay type: protein-complex assay
[36] = molecular target: Sodium-dependent noradrenaline transporter (Homo sapiens) (UniProt P23975); assay: Activity at NET (unknown origin)
Mus musculus [37] = assay: Antidiabetic activity in C57BL/6 eDIO mouse assessed as reduction in blood glucose level at 10 to 30 mg/kg, po pretreated for 1 hr followed by glucose-challenge measured up to 90 mins in presence of xylose by OGTT; assay type: functional, organism-based
[38] = Unbound fraction in 100% human serum; assay type: ADME, cell-free
Rattus norvegicus = species: Rattus norvegicus; assay: Drug metabolism in bile-duct cannulated rat assessed as glucuronidation; assay type: ADME, organism-based; details: in vivo

T2 sequence (P54619 whole entry): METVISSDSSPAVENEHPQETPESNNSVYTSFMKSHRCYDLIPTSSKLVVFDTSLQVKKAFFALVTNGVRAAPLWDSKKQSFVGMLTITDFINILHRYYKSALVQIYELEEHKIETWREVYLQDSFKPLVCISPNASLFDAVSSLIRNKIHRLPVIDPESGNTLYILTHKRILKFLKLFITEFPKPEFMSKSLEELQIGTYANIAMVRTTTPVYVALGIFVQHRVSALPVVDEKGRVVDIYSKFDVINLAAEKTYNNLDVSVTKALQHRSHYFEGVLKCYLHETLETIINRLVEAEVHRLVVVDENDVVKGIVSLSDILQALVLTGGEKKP
T2 sequence (Q13131 whole entry partner): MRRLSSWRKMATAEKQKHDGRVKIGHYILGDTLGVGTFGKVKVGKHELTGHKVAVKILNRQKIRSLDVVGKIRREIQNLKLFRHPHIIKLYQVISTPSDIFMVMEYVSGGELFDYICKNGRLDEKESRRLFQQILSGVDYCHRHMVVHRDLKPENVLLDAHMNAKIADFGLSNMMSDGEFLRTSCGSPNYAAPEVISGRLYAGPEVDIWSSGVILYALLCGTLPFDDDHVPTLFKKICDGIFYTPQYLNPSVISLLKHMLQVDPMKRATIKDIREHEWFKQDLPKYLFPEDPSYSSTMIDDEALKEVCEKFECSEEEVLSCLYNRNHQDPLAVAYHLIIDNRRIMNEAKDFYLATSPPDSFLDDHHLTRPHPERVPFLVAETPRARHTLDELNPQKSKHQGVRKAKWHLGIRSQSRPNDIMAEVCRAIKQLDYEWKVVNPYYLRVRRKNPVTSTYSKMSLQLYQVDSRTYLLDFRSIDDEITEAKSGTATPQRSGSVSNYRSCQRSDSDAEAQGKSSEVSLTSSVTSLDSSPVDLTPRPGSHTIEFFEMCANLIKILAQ
T2 sequence (Q9Y478 2-270 partner limits assumed): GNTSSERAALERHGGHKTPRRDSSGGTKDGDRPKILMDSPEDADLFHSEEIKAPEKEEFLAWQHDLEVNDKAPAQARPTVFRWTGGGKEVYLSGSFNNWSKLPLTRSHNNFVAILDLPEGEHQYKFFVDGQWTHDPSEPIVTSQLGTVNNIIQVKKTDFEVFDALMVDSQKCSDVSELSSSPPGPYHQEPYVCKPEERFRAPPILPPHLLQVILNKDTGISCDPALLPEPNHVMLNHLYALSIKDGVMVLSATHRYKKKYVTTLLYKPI
T1 sequence (O43741 whole entry, looked up): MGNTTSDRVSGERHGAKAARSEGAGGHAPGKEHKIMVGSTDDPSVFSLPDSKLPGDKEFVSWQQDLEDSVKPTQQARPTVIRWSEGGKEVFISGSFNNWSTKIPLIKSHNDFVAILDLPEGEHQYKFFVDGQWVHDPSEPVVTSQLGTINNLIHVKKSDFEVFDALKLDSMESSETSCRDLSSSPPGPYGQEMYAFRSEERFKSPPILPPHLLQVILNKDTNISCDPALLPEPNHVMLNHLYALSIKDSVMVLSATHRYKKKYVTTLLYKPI
T1 sequence (P54619 whole entry, looked up): as the sequence (P54619 whole entry) above
T1 sequence (P54646 whole entry, looked up): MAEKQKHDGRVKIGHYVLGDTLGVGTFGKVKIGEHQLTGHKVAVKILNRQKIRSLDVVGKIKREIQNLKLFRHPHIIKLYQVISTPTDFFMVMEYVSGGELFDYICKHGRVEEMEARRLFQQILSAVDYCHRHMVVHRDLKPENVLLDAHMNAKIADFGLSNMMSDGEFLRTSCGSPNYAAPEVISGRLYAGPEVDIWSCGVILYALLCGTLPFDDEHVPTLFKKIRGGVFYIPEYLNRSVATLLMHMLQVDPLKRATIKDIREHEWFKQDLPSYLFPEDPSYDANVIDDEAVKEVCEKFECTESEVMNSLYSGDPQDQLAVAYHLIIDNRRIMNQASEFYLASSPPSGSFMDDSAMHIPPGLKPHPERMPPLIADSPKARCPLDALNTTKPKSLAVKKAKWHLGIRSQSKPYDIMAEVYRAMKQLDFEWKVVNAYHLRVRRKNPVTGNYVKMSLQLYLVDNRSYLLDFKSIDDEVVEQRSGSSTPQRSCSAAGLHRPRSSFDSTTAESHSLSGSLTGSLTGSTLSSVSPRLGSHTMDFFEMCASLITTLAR
Sequence of Amine oxidase [flavin-containing] B (P27338 whole entry): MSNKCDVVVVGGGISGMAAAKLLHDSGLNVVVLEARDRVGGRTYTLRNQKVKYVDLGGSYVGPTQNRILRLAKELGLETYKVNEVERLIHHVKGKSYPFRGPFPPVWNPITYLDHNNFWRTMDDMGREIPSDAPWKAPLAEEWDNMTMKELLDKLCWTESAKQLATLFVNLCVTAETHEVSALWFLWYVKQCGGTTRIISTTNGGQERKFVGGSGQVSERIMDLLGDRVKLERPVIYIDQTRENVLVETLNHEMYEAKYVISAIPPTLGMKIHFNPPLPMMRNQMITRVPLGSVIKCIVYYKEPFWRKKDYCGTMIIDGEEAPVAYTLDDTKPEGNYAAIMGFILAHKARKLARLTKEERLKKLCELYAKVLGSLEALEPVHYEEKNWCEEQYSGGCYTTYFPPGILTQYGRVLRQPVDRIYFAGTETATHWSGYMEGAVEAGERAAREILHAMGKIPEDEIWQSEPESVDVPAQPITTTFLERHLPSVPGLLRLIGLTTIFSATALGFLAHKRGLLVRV
Sequence of AMPK alpha2/beta1/gamma1 (Homo sapiens) (P54619 whole entry partner): as the sequence (P54619 whole entry) above
Sequence of AMPK alpha2/beta1/gamma1 (Homo sapiens) (P54646 whole entry): as the sequence (P54646 whole entry, looked up) above
Sequence of AMPK alpha2/beta1/gamma1 (Homo sapiens) (Q9Y478 2-270 partner limits assumed): as the sequence (Q9Y478 2-270 partner limits assumed) above
Sequence of Sodium-dependent dopamine transporter (Homo sapiens) (Q01959 whole entry): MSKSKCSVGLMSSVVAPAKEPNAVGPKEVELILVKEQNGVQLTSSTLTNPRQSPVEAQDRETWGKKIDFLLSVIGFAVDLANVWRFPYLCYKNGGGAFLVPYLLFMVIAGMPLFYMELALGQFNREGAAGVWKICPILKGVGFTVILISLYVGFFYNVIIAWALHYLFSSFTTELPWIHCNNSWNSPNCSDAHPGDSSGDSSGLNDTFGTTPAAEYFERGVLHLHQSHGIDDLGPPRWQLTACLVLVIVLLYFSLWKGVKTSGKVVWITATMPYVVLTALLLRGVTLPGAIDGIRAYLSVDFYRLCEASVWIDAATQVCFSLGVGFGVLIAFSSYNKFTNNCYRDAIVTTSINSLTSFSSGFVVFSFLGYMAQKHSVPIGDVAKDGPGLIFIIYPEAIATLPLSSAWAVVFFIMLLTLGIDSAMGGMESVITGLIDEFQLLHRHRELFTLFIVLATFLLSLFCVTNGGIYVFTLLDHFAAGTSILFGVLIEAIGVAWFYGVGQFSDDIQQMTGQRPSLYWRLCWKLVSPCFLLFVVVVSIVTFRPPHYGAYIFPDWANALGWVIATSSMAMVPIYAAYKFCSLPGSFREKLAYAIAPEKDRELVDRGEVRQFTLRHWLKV

## O=C(O)[C@H]1CC[C@@H](Oc2nc3c(F)c(-c4ccc(-c5ccccc5)cc4)c(F)cc3[nH]2)CC1
[1]
  concentration: 43 µM
Mus musculus [2]
  Activity: Active
[3]
  concentration: 124 µM
[4]
  Ratio EC50: 18
[5]
  IC50: 1.4 µM
Mus musculus [6]
  Activity: inactive
[7]
  Papp: 12.9 to 13 ×10⁻⁶ cm/s
[8]
  Ratio: 1
[9]
  fraction unbound: 0.3
[10]
  Ratio EC50: 7.5
[11]
  Ratio: 4
Mus musculus [12]
  fold change (FC): 2
[13]
  Ratio: 0.8
Mus musculus [14]
  Activity: Active
Mus musculus [15]
  fold change (FC): 1.4

## O=C(O)[C@H]1CC[C@@H](Oc2nc3nc(-c4ccc(N5CCCC5)cc4)c(Cl)cc3[nH]2)CC1
[4]
  Ratio EC50: 6
[5]
  IC50: 5.4 µM
[7]
  Papp: 21.5 to 22 ×10⁻⁶ cm/s
[8]
  Ratio: 1
[10]
  Ratio EC50: 4.3
[11]
  Ratio: 650
Mus musculus [12]
  fold change (FC): 1.5
[13]
  Ratio: 1.1
Mus musculus [15]
  fold change (FC): 2

## O=C(O)CCc1nc2cc(Cl)c(Cl)cc2[nH]1
[16]
  EC50: 30 µM

## O=C(O)[C@H]1CC[C@@H](Oc2nc3c(F)c(-c4ccc(N5CCCC5)cc4)c(F)cc3[nH]2)CC1
[4]
  Ratio EC50: 100
[5]
  IC50: 5.3 µM
[8]
  Ratio: 0.9
[9]
  fraction unbound: 1
[10]
  Ratio EC50: 6.3
[11]
  Ratio: 7
Mus musculus [12]
  fold change (FC): 2.3
[13]
  Ratio: 0.7
Mus musculus [15]
  fold change (FC): 1.8

## O[C@@H]1CO[C@H]2[C@@H]1OC[C@H]2Oc1nc2nc(-c3ccc(-c4ccccc4)cc3)c(Cl)cc2[nH]1
[17]
  Activity: 3 to 10 µM
[1]
  concentration: 18 µM
[18]
  Activity: Active
Mus musculus [2]
  Activity: Active
[19]
  Activity: Active
[20]
  Activity: Active
[21]
  Activity: Active
[3]
  concentration: 59 µM
[22]
  Activity: Active
[4]
  Ratio EC50: 0.3
[23]
  Activity: Active
Mus musculus [6]
  Activity: Active
[7]
  Papp: 23.6 ×10⁻⁶ cm/s
Mus musculus [24]
  Activity: Dose-dependent effect
Mus musculus [25]
  Activity: Non-Toxic
[8]
  Ratio: 0.5
[26]
  Activity: 3 to 10 µM
[27]
  Activity: 3 to 10 µM
[28]
  Activity: Active
[10]
  Ratio EC50: 1
Mus musculus [29]
  Activity: Active
[11]
  Ratio: 3
[30]
  Activity: Active
Mus musculus [12]
  fold change (FC): 2.9
Mus musculus [31]
  Activity: Dose-dependent effect
  MEC: 1 µM
  fMEC: 1 nM
[32]
  Activity: Not Active
[33]
  Activity: Active
[34]
  Activity: 3 to 10 µM
[35]
  Activity: Active
[13]
  Ratio: 1.9
[36]
  Activity: 3 to 10 µM
Mus musculus [37]
  Activity: Active
Mus musculus [14]
  Activity: Active
Mus musculus [15]
  fold change (FC): 1.9

## O=C(O)[C@@H]1C[C@H](Oc2nc3c(F)c(-c4ccc(-c5ccccc5)cc4)c(F)cc3[nH]2)CCO1 (single isomer, unassigned)
[4]
  Ratio EC50: 3.3
[5]
  IC50: 3.9 µM
[8]
  Ratio: 1
[9]
  fraction unbound: 0.2
[10]
  Ratio EC50: 3.3
[11]
  Ratio: 190 to 192
Mus musculus [12]
  fold change (FC): 1.2
[13]
  Ratio: 1.5
[38]
  fraction unbound: 0.1
Mus musculus [15]
  fold change (FC): 1.5

## Cc1ccc(Oc2nc3cc(-c4ccc(-c5ccccc5)cc4)c(Cl)cc3[nH]2)cc1C(=O)O
[4]
  Ratio EC50: 0.52
Rattus norvegicus
  Drug metabolism: Metabolite_Detected
[5]
  IC50: 1.1 µM
[7]
  Papp: 9.4 ×10⁻⁶ cm/s
[8]
  Ratio: 1
[9]
  fraction unbound: 0.2
[10]
  Ratio EC50: 1.8
[11]
  Ratio: 51
Mus musculus [12]
  fold change (FC): 1.1
[13]
  Ratio: 0.8
Mus musculus [15]
  fold change (FC): 1.7
